This note sets out measurements from ChEMBL document CHEMBL3763033, “New quinoline derivatives as nicotinic receptor modulators” (Eur J Med Chem, 2016).

The source made the active and inactive calls. No cut-off for these calls is given here.

The nature of assay [1]: Displacement of [3H]methyllycaconitine from Sprague-Dawley rat brain alpha7* nAChR incubated for 2.5 hrs by liquid scintillation counting analysis. The assay is classed as tissue-based. A general note: In a radioligand displacement assay an active substance lowers the binding of a labelled ligand.
For assay [2], the species on record is Rattus norvegicus. Nature of the assay: Displacement of [3H]cytisine from Wistar rat cerebral cortex alpha4beta2* nAChR at 1 uM incubated for 75 mins by competition binding assay. It counts as tissue-based.
Assay [3] is filed under the species Rattus norvegicus. Kind of assay: Displacement of [3H]methyllycaconitine from Sprague-Dawley rat brain alpha7* nAChR at 1 uM incubated for 2.5 hrs by liquid scintillation counting analysis. The assay is classed as tissue-based.
Assay [4] in a line: Displacement of [3H]cytisine from Wistar rat cerebral cortex alpha4beta2* nAChR incubated for 75 mins by competition binding assay. It counts as tissue-based.
Assay [5] has as its target T1, Neuronal acetylcholine receptor subunit alpha-7 (Homo sapiens, UniProt P36544). Nature of the assay: Agonist activity at human alpha7 receptor expressed in mouse Neuro2a cells assessed as induction of intracellular calcium level measured every 2 sec for 3 mins by fluorescence microplate reader analysis in presence of 2 uM alpha7 receptor antagonist alpha-cobratoxin. The assay is classed as cell-based. On the technique in general: Calcium flux is commonly read through the fluorescence of an indicator in the cells.

Assay [6] is filed under the species Gallus gallus. Kind of assay: Antagonist activity at chicken alpha7/GlyR chimeric receptor expressed in Xenopus oocytes assessed as inhibition of acetylcholine-induced ion current at 50 uM preincubated with compound followed by 100 uM acetylcholine addition along with compound treatment measured after 36 to 72 hrs by two electrode voltage clamp method. The assay is classed as cell-based. In general terms: Two-electrode voltage clamp holds a large cell at a set potential and records current.

The species entered for assay [7] is Rattus norvegicus. Nature of the assay: Selectivity ratio of Ki for Wistar rat cerebral cortex alpha4beta2* nAChR to Ki for Sprague-Dawley rat brain alpha7* nAChR. The assay is classed as tissue-based.
Assay [8] has as its target T1, Neuronal acetylcholine receptor subunit alpha-7. Kind of assay: Agonist activity at human alpha7 receptor expressed in mouse Neuro2a cells assessed as induction of intracellular calcium level preincubated with PNU-120596 for 20 mins followed by compound addition measured every 2 sec for 3 mins by fluorescence microplate reader analysis. It counts as cell-based.
The species entered for assay [9] is Rattus norvegicus. Nature of the assay: Antagonist activity at rat alpha4beta2* nAChR expressed in Xenopus oocytes assessed as inhibition of epibatidine-induced ion current at 50 uM preincubated with compound followed by 1 uM epibatidine addition along with compound treatment measured after 36 to 72 hrs by two electrode voltage clamp method. The assay is classed as cell-based.

The species entered for assay [10] is Rattus norvegicus. Nature of the assay: Activation of rat alpha4beta2* nAChR expressed in Xenopus oocytes at 50 uM after 36 to 72 hrs by two electrode voltage clamp method. It counts as cell-based.
The species entered for assay [11] is Gallus gallus. Nature of the assay: Activation of chicken alpha7/GlyR chimeric receptor expressed in Xenopus oocytes at 50 uM after 36 to 72 hrs by two electrode voltage clamp method. The assay is classed as cell-based.
Assay [12] addresses T1, Neuronal acetylcholine receptor subunit alpha-7. Nature of the assay: Antagonist activity at human alpha7 receptor expressed in mouse Neuro2a cells assessed as inhibition of acetylcholine iodide-induced intracellular calcium level at 50 uM preincubated with PNU-120596 for 20 mins followed by acetylcholine iodide addition along with compound treatment measured every 2 sec for 3 mins by fluorescence microplate reader analysis. The assay is classed as cell-based.

For assay [13] the target is unchanged. Kind of assay: Antagonist activity at human alpha7 receptor expressed in mouse Neuro2a cells assessed as inhibition of acetylcholine iodide-induced intracellular calcium level at 300 uM preincubated with PNU-120596 for 20 mins followed by acetylcholine iodide addition along with compound treatment measured every 2 sec for 3 mins by fluorescence microplate reader analysis. It counts as cell-based.

The species named for assay [14] is Rattus norvegicus. Kind of assay: Selectivity ratio of Ki for Sprague-Dawley rat brain alpha7* nAChR to Ki for Wistar rat cerebral cortex alpha4beta2* nAChR. It counts as tissue-based.

T1 sequence (P36544 whole entry): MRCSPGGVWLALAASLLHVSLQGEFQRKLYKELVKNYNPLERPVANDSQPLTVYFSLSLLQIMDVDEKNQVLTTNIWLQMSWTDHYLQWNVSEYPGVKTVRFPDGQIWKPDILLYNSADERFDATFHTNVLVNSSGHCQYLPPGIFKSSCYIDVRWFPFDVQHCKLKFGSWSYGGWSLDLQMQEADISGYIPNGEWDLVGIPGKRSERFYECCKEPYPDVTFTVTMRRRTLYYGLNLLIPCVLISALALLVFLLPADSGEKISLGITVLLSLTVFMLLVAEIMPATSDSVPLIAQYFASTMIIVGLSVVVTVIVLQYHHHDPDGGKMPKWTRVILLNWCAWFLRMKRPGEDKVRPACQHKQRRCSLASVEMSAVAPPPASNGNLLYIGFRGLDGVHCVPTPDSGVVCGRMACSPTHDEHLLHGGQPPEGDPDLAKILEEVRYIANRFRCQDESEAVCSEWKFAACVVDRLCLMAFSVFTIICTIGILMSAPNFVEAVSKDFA

In the case of `O=C(N[C@H]1CN2CCC1CC2)c1cc2cccc(Cl)c2s1` [ENCENICLINE], the Ki (usually the dissociation constant of the complex between target and ligand, obtained from inhibition or displacement) in [1] was 9.98 nM.
For the compound `O=C(c1ccc2ncccc2c1)N1CCN2CCC1CC2`, the Activity in [2] and in [3] was under 20% in each case.
Consider `C[N+]12CCC(C1)N(c1ccc3ncccc3c1)CC2` (stereo not given), for which the Activity in assay [2] and in assay [3] was under 20% each time.
Turning to `O=C(c1cccc2cnccc12)N1CCN2CCC1CC2`, the Activity in [2] and in [3] was under 20% in each case.
As to `C[N+]12CCC(C1)N(c1ccc3cnccc3c1)CC2` (stereo not given), the Activity in assay [2] and in assay [3] was under 20% throughout.
With `O=C(c1ccc2ncccc2c1)N1CCN2CCC1C2` (stereo not given), the Activity in assay [2] and in [3] was under 20% in each case.
With `O=C(c1ccc2cccnc2c1)N1CCN2CCC1CC2`, the Activity in [2] and in assay [3] was under 20% each time.
For the compound `O=C(NC1CN2CCC1CC2)c1ccc2ncccc2c1` (stereo not given), the Activity in [2] and in assay [3] was under 20% each time.
For `C1=C(c2ccc3ncccc3c2)C2CCN1CC2`, the Activity in assay [2] and in assay [3] was under 20% each time.
Consider `C[N+]12CCC(C1)N(C(=O)c1ccc3cccnc3c1)CC2` (stereo not given), for which the Activity in assay [2] and in assay [3] was under 20% throughout.
Consider `O=C(c1cccc2cnccc12)N1CCN2CCC1C2` (stereo not given), for which the Activity in [2] and in assay [3] was under 20% each time.
With `c1cc2cc(N3CCN4CCC3C4)ccc2cn1` (stereo not given), the Activity in assay [2] and in assay [3] was under 20% throughout.
Regarding `c1cnc2cc(N3CCN4CCC3C4)ccc2c1` (stereo not given), the Activity in assay [2] and in assay [3] was under 20% in each case.
Take `Cc1ccc2oc(N3CCN4CCC3CC4)nc2n1`: in assay [1], the Ki worked out at 13.5 nM.
`C[N+]12CCC(CC1)N(C(=O)c1ccc3ncccc3c1)CC2`: the Activity in assay [2] and in assay [3] was under 20% in each case.
Consider `C[N+]12CCC(C1)N(c1cccc3ncccc13)CC2` (stereo not given), for which the Activity in assay [2] and in assay [3] was under 20% throughout.
With `O=C(N[C@H]1CN2CCC1CC2)c1ccc(Cl)cc1` [PNU-282987], the Ki in assay [1] worked out at 24 nM. In other words, the double-digit nanomolar range.
As for `C[N+]12CCC(CC1)C(NC(=O)c1ccc3cccnc3c1)C2` (stereo not given), the Activity in [2] and in assay [3] was under 20% throughout.
Take `c1cnc2ccc(C3CN4CCC3CC4)cc2c1` (stereo not given): the Activity in assay [2] and in assay [3] was under 20% throughout.
Consider `O=C(Oc1ccc(Br)cc1)N1CCN2CCC1CC2` [SSR180711], for which the inhibitory constant (Ki) in [1] came to 22 nM.
As for `CCN1C[C@]2(COC(=O)c3ccccc3N3C(=O)CC(C)C3=O)CC[C@H](OC)[C@@]34C2[C@H](OC)[C@](O)(C13)[C@@]1(O)C[C@H](OC)[C@H]2C[C@@H]4[C@@H]1[C@H]2OC` (stereo not given in full), the Ki in assay [1] was 1.4 nM.
`CN1CCC[C@H]1c1cccnc1` [NICOTINE] gave a Ki in assay [4] of 2.3 nM.
Consider `c1cc(N2CCN3CCC2CC3)c2cccnc2c1`, for which the Activity in [2] and in assay [3] was under 20% throughout.
Regarding `c1cnc2cc(N3CCN4CCC3CC4)ccc2c1`, the outcome in assay [5], in assay [10] and in assay [11] was inactive. For the same compound, the inhibition entry in [6] and in [9] was “Active” each time. In addition, in [7], the Ratio Ki is 3. Also, the EC50 (usually the concentration giving half of the maximal effect) in [8] was 1090 nM. In addition, the results for the Ki in assay [4] and in assay [1] were over 1000 nM and 117 nM, respectively.
As to `c1cnc2ccc(N3CCN4CCC3CC4)cc2c1`, the result in assay [5], in assay [10] and in assay [11] was inactive. The inhibition entry in [6] and in assay [9] was “Active” each time. Besides, the Ratio Ki in assay [7] was 10. Further, the EC50 in [8] was found to be 1410 nM. In addition, the values for the Ki in assay [4] and in assay [1] were over 1000 nM and 96 nM, respectively.
Turning to `c1cc2cc(N3CCN4CCC3CC4)ccc2cn1`, in [7], the Ratio Ki was determined as 3. The values for the Ki in assay [4] and in [1] were over 1000 nM and 248 nM, respectively.
`C[N+]12C=C(c3ccc4ncccc4c3)C(CC1)CC2`: the Activity in assay [2] and in assay [3] was under 20% each time.
`O=C(c1ccc2cccnc2c1)N1CCN2CCC1C2` (stereo not given): the Activity in [2] and in assay [3] was under 20% each time.
With `C[N+]12CCC(CC1)C(NC(=O)c1ccc3ncccc3c1)C2` (stereo not given), the Activity in [2] and in assay [3] was under 20% in each case.
On to `C[N+]12CCC(C1)N(C(=O)c1ccc3ncccc3c1)CC2` (stereo not given), for which the Activity in assay [2] and in assay [3] was under 20% each time.
For `c1cc(N2CCN3CCC2C3)c2cccnc2c1` (stereo not given), the Activity in [2] and in assay [3] was under 20% throughout.
Consider `C[N+]12CCC(CC1)N(C(=O)c1cccc3cnccc13)CC2`, for which the Activity in assay [2] and in [3] was under 20% each time.
As for `C[N+]12CCC(CC1)N(C(=O)c1ccc3cccnc3c1)CC2`, the Activity in [2] and in assay [3] was under 20% in each case.
As to `O=C(NC1CN2CCC1CC2)c1ccc2cccnc2c1` (stereo not given), the outcome in [5], in [10] and in assay [11] was inactive. Besides, the inhibition result in assay [6], in assay [12] and in assay [9] was “Active” each time. Besides, the Ratio Ki in assay [7] turned out to be 3. Further, in assay [8], the concentration giving a half-maximal response (EC50) came out at 1570 nM. Moreover, the figures for the inhibitory constant (Ki) in [4] and in assay [1] were over 1000 nM and 287 nM, respectively.
Turning to `C[N+]12CCC(C1)N(C(=O)c1cccc3cnccc13)CC2` (stereo not given), the Activity in [2] and in assay [3] was under 20% throughout.
Regarding `c1cnc2ccc(N3CCN4CCC3C4)cc2c1` (stereo not given), the inhibition entry in assay [6], in [13] and in [9] was “Active” each time. In addition, the Ratio Ki in [14] is 2. Besides, the outcome in [10] and in assay [11] was inactive. In addition, the inhibitory constant (Ki) in assay [4] was 412 nM; in [1], over 1000 nM.
For `C[N+]12CCC(CC1)C(NC(=O)c1cccc3cnccc13)C2` (stereo not given), the Activity in assay [2] and in assay [3] was under 20% in each case.
In turn, `c1cncc(C2CCC3CCN2CC3)c1` (stereo not given) gave an inhibition constant (Ki) in assay [1] of 11 nM.
Take `O=C(NC1CN2CCC1CC2)c1cccc2cnccc12` (stereo not given): the Activity in assay [2] and in [3] was under 20% throughout.
